The values below come from ChEMBL document CHEMBL1201862, “PubChem BioAssay data set” (2004).

What all share (test): NCI anticancer screen, dose series, 48 h
The test system of assay [1] is MDA-MB-435.
For assay [2], the system named is HOP-62.
The test system of assay [3] is RXF 393.
The test system of assay [4] is SK-MEL-5.
In assay [5] the test system is HCC 2998.
Assay [6] relates to SW-620.
The test system of assay [7] is DU-145.
The test system of assay [8] is A549.
The subject of assay [9] is M14.
Assay [10] relates to UACC-62.
The subject of assay [11] is CAKI-1.
Assay [12] deals with SK-MEL-28.
Assay [13] has as its system RPMI-8226.
Assay [14] deals with SNB-19.
Assay [15] concerns A498.
Assay [16] has as its system SF-539.
The subject of assay [17] is MCF7.
Assay [18] has as its system NCI-H23.
Assay [19] concerns SF-268.
Assay [20] concerns HL-60.

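Method: 48-hour compound exposure of cells in 96-well plates, five concentrations, linear interpolation of endpoints. GI50 marks 50% less growth.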 Activity calls are given as the source filed them. No stated cut-off is given here; in the data, active = GI50 up to about 1.1 µM and inactive = higher.

Regarding `C/C=C/COc1cc(NC(=S)c2ccoc2C)ccc1OC`, the GI50 in assay [1] was > 100 µM (inactive); in [2], 34.7 µM (inactive); in assay [3], > 100 µM (inactive); in assay [4] it was 48.9 µM (inactive); in [5], > 100 µM (inactive); in assay [6], > 100 µM (inactive). Further, the GI50 was 71.1 µM (inactive) in [7]; > 100 µM (inactive) in assay [8]; > 100 µM (inactive) in [9]; > 100 µM (inactive) in [10]; 25.6 µM (inactive) in assay [11]; > 100 µM (inactive) in assay [12]. Moreover, the GI50 is 23 µM (inactive) in [13]; 26.7 µM (inactive) in assay [14]; 49.3 µM (inactive) in assay [15]; 76.7 µM (inactive) in assay [16]; > 100 µM (inactive) in assay [17]; > 100 µM (inactive) in assay [18]. The figures for the GI50 in [19] and in assay [20] were 44.3 µM (inactive) and 60.3 µM (inactive), respectively.

Take `CCCC(=O)Nc1cn(COC)c(C(=O)N2C[C@H]3C[C@@]34C2=CC(=O)c2[nH]cc(C)c24)n1`: the GI50 in assay [1] was 6.81 µM (inactive); in [2], 7.98 µM (inactive); in assay [3], 8.2 µM (inactive); in [4] it was 4.06 µM (inactive); in assay [5], 2.89 µM (inactive); in assay [6], 3.66 µM (inactive). Besides, the GI50 in [7] was 1.38 µM (inactive); in [8], 12.2 µM (inactive); in assay [9], 8.15 µM (inactive); in assay [10] it was 5.92 µM (inactive); in assay [11], 2.72 µM (inactive); in assay [12] it was 12 µM (inactive). The GI50 in [13] was 6.04 µM (inactive); in [14] it was 18.1 µM (inactive); in [15] it was 8.63 µM (inactive); in assay [16], 4.98 µM (inactive); in [17], 1.32 µM (inactive); in assay [18] it was 2.02 µM (inactive). For the same molecule, the GI50 in assay [19] is 5.12 µM (inactive); in assay [20] it was 0.728 µM (active).
